Data published in ChEMBL document CHEMBL2203235, “Optimization of a natural product-based class of γ-secretase modulators” (J Med Chem, 2012).

What was measured:
[1] = test system: Liver microsomes; assay: Metabolic stability in human liver microsomes at 1 uM after 60 mins by LC/MS/MS analysis; conditions: 1 h
[2] = Modulation of gamma secretase in CHO-2B7 cells assessed as reduction in amyloid beta 40 level after 5 hrs by MSD ELISA; type: cell-based; conditions: Cricetulus griseus, CHO-2B7, 5 h
[3] = Modulation of gamma secretase in CHO-2B7 cells assessed as reduction in amyloid beta 42 level after 5 hrs by MSD ELISA; type: cell-based; conditions: Cricetulus griseus, CHO-2B7, 5 h

| SMILES | Stability [1] | IC50 [2] [nM] | IC50 [3] [nM] |
| --- | --- | --- | --- |
| CCO[C@@H]([C@H]1C[C@@H](C)[C@H]2[C@H](O1)[C@H](O)[C@@]1(C)[C@@H]3CC[C@H]4C(C)(C)[C@@H](OC(=O)NC5COC5)CC[C@@]45C[C@@]35CC[C@]21C)C(C)(C)O | Stable | 5000 | 140 |
| CCO[C@@H]([C@H]1C[C@@H](C)[C@H]2[C@H](O1)[C@H](O)[C@@]1(C)[C@@H]3CC[C@H]4C(C)(C)[C@@H](O[C@H]5CN(CCN6CCOCC6)CCO5)CC[C@@]45C[C@@]35CC[C@]21C)C(C)(C)O | Stable | 1300 | 430 |
| CCO[C@@H]([C@H]1C[C@@H](C)[C@H]2[C@H](O1)[C@H](O)[C@@]1(C)[C@@H]3CC[C@H]4C(C)(C)[C@@H](O[C@H]5CN(CCN6CCC6)CCO5)CC[C@@]45C[C@@]35CC[C@]21C)C(C)(C)O | Stable | 2900 | 110 |
| CCO[C@@H]([C@H]1C[C@@H](C)[C@H]2[C@H](O1)[C@H](O)[C@@]1(C)[C@@H]3CC[C@H]4C(C)(C)[C@@H](O[C@H]5CN(CC(=O)N6CCOCC6)CCO5)CC[C@@]45C[C@@]35CC[C@]21C)C(C)(C)O | Stable | 14000 | 230 |
| CCO[C@@H]([C@H]1C[C@@H](C)[C@H]2[C@H](O1)[C@H](O)[C@@]1(C)[C@@H]3CC[C@H]4C(C)(C)[C@@H](O[C@H]5CN(C(=O)C(C)C)CCO5)CC[C@@]45C[C@@]35CC[C@]21C)C(C)(C)O | Stable | 3500 | 170 |
| CCO[C@@H]([C@H]1C[C@@H](C)[C@H]2[C@H](O1)[C@H](O)[C@@]1(C)[C@@H]3CC[C@H]4C(C)(C)[C@@H](O[C@H]5CN(C(=O)CC6CNC6)CCO5)CC[C@@]45C[C@@]35CC[C@]21C)C(C)(C)O | Stable | 2500 | 120 |
| COCCN1CCO[C@@H](O[C@H]2CC[C@]34C[C@]35CC[C@]3(C)[C@@H]6[C@H](O[C@@H]([C@H](OC(=O)N7CCC7)C(C)C)C[C@H]6C)[C@H](O)[C@@]3(C)[C@@H]5CC[C@H]4C2(C)C)C1 | Stable | 5200 | 530 |
| CC(C)[C@@H](OC(=O)N1CCC1)[C@H]1C[C@@H](C)[C@H]2[C@H](O1)[C@H](O)[C@@]1(C)[C@@H]3CC[C@H]4C(C)(C)[C@@H](O[C@H]5CN(C(=O)CN6CCC6)CCO5)CC[C@@]45C[C@@]35CC[C@]21C | Stable | 7700 | 110 |
| CCO[C@@H]([C@H]1C[C@@H](C)[C@H]2[C@H](O1)[C@H](O)[C@@]1(C)[C@@H]3CC[C@H]4C(C)(C)[C@@H](O[C@H]5CN(C6CCOCC6)CCO5)CC[C@@]45C[C@@]35CC[C@]21C)C(C)(C)O | Stable | 5000 | 350 |
| CCO[C@@H]([C@H]1C[C@@H](C)[C@H]2[C@H](O1)[C@H](O)[C@@]1(C)[C@@H]3CC[C@H]4C(C)(C)[C@@H](O[C@H]5CN(C(=O)CC6CN(C)C6)CCO5)CC[C@@]45C[C@@]35CC[C@]21C)C(C)(C)O | Stable | 3100 | 150 |
| CCO[C@@H]([C@H]1C[C@@H](C)[C@H]2[C@H](O1)[C@H](O)[C@@]1(C)[C@@H]3CC[C@H]4C(C)(C)[C@@H](OC(=O)N5CC[C@H](C(=O)O)C5)CC[C@@]45C[C@@]35CC[C@]21C)C(C)(C)O | Stable | 17000 | 400 |
| CC(=O)N1CCN(C(=O)O[C@H]2CC[C@]34C[C@]35CC[C@]3(C)[C@@H]6[C@H](O[C@@H]([C@H](OC(=O)N7CCC7)C(C)C)C[C@H]6C)[C@H](O)[C@@]3(C)[C@@H]5CC[C@H]4C2(C)C)CC1 | Stable | 5100 | 190 |
| CCO[C@@H]([C@H]1C[C@@H](C)[C@H]2[C@H](O1)[C@H](O)[C@@]1(C)[C@@H]3CC[C@H]4C(C)(C)[C@@H](OC(=O)N[C@H]5CCNC5=O)CC[C@@]45C[C@@]35CC[C@]21C)C(C)(C)O | Stable | 2900 | 190 |
| CC(C)[C@@H](OC(=O)N1CCC1)[C@H]1C[C@@H](C)[C@H]2[C@H](O1)[C@H](O)[C@@]1(C)[C@@H]3CC[C@H]4C(C)(C)[C@@H](OC(=O)N[C@H]5CCNC5=O)CC[C@@]45C[C@@]35CC[C@]21C | Stable | 1000 | 400 |
| CCO[C@@H]([C@H]1C[C@@H](C)[C@H]2[C@H](O1)[C@H](O)[C@@]1(C)[C@@H]3CC[C@H]4C(C)(C)[C@@H](OC(=O)N5CCN(CC(=O)O)CC5)CC[C@@]45C[C@@]35CC[C@]21C)C(C)(C)O | Stable | 10000 | 290 |
| CC(C)[C@@H](OC(=O)N1CCC1)[C@H]1C[C@@H](C)[C@H]2[C@H](O1)[C@H](O)[C@@]1(C)[C@@H]3CC[C@H]4C(C)(C)[C@@H](OC(=O)N(C)CC(=O)O)CC[C@@]45C[C@@]35CC[C@]21C | Stable | 480 | 1790 |

| SMILES | Stability [1] | IC50 [2] [nM] | IC50 [3] [nM] |
| --- | --- | --- | --- |
| CC(C)[C@@H](OC(=O)N1CCC1)[C@H]1C[C@@H](C)[C@H]2[C@H](O1)[C@H](O)[C@@]1(C)[C@@H]3CC[C@H]4C(C)(C)[C@@H](OC(=O)N5CC(NCC(F)(F)F)C5)CC[C@@]45C[C@@]35CC[C@]21C | Stable | 11000 | 750 |
| CCO[C@@H]([C@H]1C[C@@H](C)[C@H]2[C@H](O1)[C@H](O)[C@@]1(C)[C@@H]3CC[C@H]4C(C)(C)[C@@H](O[C@H]5CN(C6(C)COC6)CCO5)CC[C@@]45C[C@@]35CC[C@]21C)C(C)(C)O | Stable | 5800 | 400 |
| CC(C)CC(=O)N1CCO[C@@H](O[C@H]2CC[C@]34C[C@]35CC[C@]3(C)[C@@H]6[C@H](O[C@@H]([C@H](OC(=O)N7CCC7)C(C)C)C[C@H]6C)[C@H](O)[C@@]3(C)[C@@H]5CC[C@H]4C2(C)C)C1 | Stable | 11000 | 1300 |
| CCO[C@@H]([C@H]1C[C@@H](C)[C@H]2[C@H](O1)[C@H](O)[C@@]1(C)[C@@H]3CC[C@H]4C(C)(C)[C@@H](OC(=O)NC5CN(C)C5)CC[C@@]45C[C@@]35CC[C@]21C)C(C)(C)O | Stable | 980 | 65 |
| CC(C)[C@@H](OC(=O)N1CCC1)[C@H]1C[C@@H](C)[C@H]2[C@H](O1)[C@H](O)[C@@]1(C)[C@@H]3CC[C@H]4C(C)(C)[C@@H](OC(=O)N[C@H]5CCCNC5=O)CC[C@@]45C[C@@]35CC[C@]21C | Stable | 6400 | 280 |
| CCO[C@@H]([C@H]1C[C@@H](C)[C@H]2[C@H](O1)[C@H](O)[C@@]1(C)[C@@H]3CC[C@H]4C(C)(C)[C@@H](OC(=O)N5CCC5)CC[C@@]45C[C@@]35CC[C@]21C)C(C)(C)O | Stable | 5000 | 140 |
| CNC(=O)O[C@H]1CC[C@]23C[C@]24CC[C@]2(C)[C@@H]5[C@H](O[C@@H]([C@H](OC(=O)N6CCC6)C(C)C)C[C@H]5C)[C@H](O)[C@@]2(C)[C@@H]4CC[C@H]3C1(C)C | Stable | 8700 | 760 |
| CC(C)[C@@H](OC(=O)N1CCC1)[C@H]1C[C@@H](C)[C@H]2[C@H](O1)[C@H](O)[C@@]1(C)[C@@H]3CC[C@H]4C(C)(C)[C@@H](OC(=O)NCC(=O)O)CC[C@@]45C[C@@]35CC[C@]21C | Stable | 7200 | 420 |
| CCO[C@@H]([C@H]1C[C@@H](C)[C@H]2[C@H](O1)[C@H](O)[C@@]1(C)[C@@H]3CC[C@H]4C(C)(C)[C@@H](O[C@H]5CN([C@@H]6CCOC6)CCO5)CC[C@@]45C[C@@]35CC[C@]21C)C(C)(C)O | Stable | 3000 | 180 |
| CCO[C@@H]([C@H]1C[C@@H](C)[C@H]2[C@H](O1)[C@H](O)[C@@]1(C)[C@@H]3CC[C@H]4C(C)(C)[C@@H](O[C@H]5CN([C@H]6CCOC6)CCO5)CC[C@@]45C[C@@]35CC[C@]21C)C(C)(C)O | Stable | 6200 | 420 |
| C[C@@H]1C[C@H]([C@H](O)C(C)(C)O)O[C@H]2[C@H]1[C@@]1(C)CC[C@@]34C[C@@]35CC[C@H](OC(=O)N3CCC3)C(C)(C)[C@@H]5CC[C@H]4[C@]1(C)[C@H]2O |  |  | 13000 |
| CC(=O)O[C@@H]([C@H]1C[C@@H](C)[C@H]2[C@H](O1)[C@H](O)[C@@]1(C)[C@@H]3CC[C@H]4C(C)(C)[C@@H](O)CC[C@@]45C[C@@]35CC[C@]21C)C(C)(C)O |  |  | 600 |
| C[C@@H]1C[C@H]([C@H](O)C(C)(C)O)O[C@H]2[C@H]1[C@@]1(C)CC[C@@]34C[C@@]35CC[C@H](OC(=O)N3CCOCC3)C(C)(C)[C@@H]5CC[C@H]4[C@]1(C)[C@H]2O |  |  | 9000 |
| C[C@@H]1C[C@H]([C@H](O)C(C)(C)O)O[C@H]2[C@H]1[C@@]1(C)CC[C@@]34C[C@@]35CC[C@H](OC(=O)NC3CN6CCC3CC6)C(C)(C)[C@@H]5CC[C@H]4[C@]1(C)[C@H]2O (stereo partly drawn) |  |  | 580 |
| C[C@@H]1C[C@H]([C@H](O)C(C)(C)O)O[C@H]2[C@H]1[C@@]1(C)CC[C@@]34C[C@@]35CC[C@H](OC(=O)NCCN(C)C)C(C)(C)[C@@H]5CC[C@H]4[C@]1(C)[C@H]2O |  |  | 5700 |
